Legend:
[1] = system: DS male mice; assay: Anti-pentylenetetrazol activity; format: in vivo; conditions: test compound orally 60 minutes prior to 125 mg/kg s.c. pentylenetetrazol, complete protection against mortality, observed two hours; for ED50: Mus musculus
Text: (1) Anti-pentylenetetrazol activity:
The convulsions were disregarded.

[2] = system: DS male mice; assay: Taming activity (inhibition of electroshock-induced fighting response); format: in vivo; conditions: compound given 60 minutes prior, 5 pairs per group; for ED50: Mus musculus
Experimental: This test was measured on DS male mice. […] These pairs of mice were selected in the morning and used for drug test in the afternoon. The test compound was administered to both mice of the pairs 60 minutes prior to the experiment. Results were obtained as the mean percentage of inhibition of fighting response in a group of 5 pairs and shown by ED50 [Tedeschi, et al.: J. Pharmacol Exp. Thev., 125, 28-34 (1959)].

[3] = system: DS male mice; assay: Rotarod performance activity; format: in vivo; conditions: fall from rod within less than 2 minutes counted as effective, 10 mice per dose; for ED50: Mus musculus
Experimental: (3) Rotarod performance activity
This test was measured on DS male mice. The mouse was put on a scraped rod of wood, 3 cm in diameter, turning at the rate of five rotations per minute. The mice that could remain on the rod for three or more minutes in successive trials were selected and placed in a group of 10 mice for each dose. If the mouse fell down from the rod within less than 2 minutes, the test compound was considered to be effective. Results were shown by ED50 [Dunham, et al.: J. Am. Pharm. Assoc., 46, 208 (1957)].

[4] = system: DS male mice; conditions: oral single dose, observed 72 hours, Bliss method
Experimental: The test compound was orally administered to DS male mice in different single doses. For each dose, 10 mice were used, their weight ranging from 20 to 23 grams. […] The mortality was calculated by the Bliss method [Bliss: Ann.

Row | Structure (SMILES) | Anti-pentylenetetrazol activity, ED50 [1] [mg/kg] | Taming activity ED50 [2] [mg/kg] | Rotarod performance ED50 [3] [mg/kg] | Acute toxicity LD50 [4] [mg/kg] | ED50 [1] [mg/kg] | ED50 [2] [mg/kg] | ED50 [3] [mg/kg]
1 | CN(C(=O)CNC(=O)CN)c1ccc(Cl)cc1C(=O)c1ccccc1 [Compound No. 1, 2-benzoyl-4-chloro-N-methyl-N^α -glycyl-glycinanilide] | 1.0 | 10.5 | 36.6 | 1309 |  |  | 
2 | CN(C(=O)CNC(=O)CN)c1ccc(Cl)cc1C(=O)c1ccccc1Cl.O [Compound No. 2, 2-o-chlorobenzoyl-4-chloro-N-methyl-N^α -glycyl-glycinanilide hydrate] | 0.58 | 3.0 | 27.7 | 1255 |  |  | 
3 | CN(C(=O)CNC(=O)CN)c1ccc(Cl)cc1C(=O)c1ccccc1F.Cl [Compound No. 3, 2-o-fluorobenzoyl-4-chloro-N-methyl-N^α -glycyl-glycinanilide hydrochloride] | 0.33 | 1.6 | 17.0 | > 1000 |  |  | 
4 | CNC1=Nc2ccc(Cl)cc2C(c2ccccc2)=[N+]([O-])C1 [Compound No. 4, Chlordiazepoxide, reference compound] |  |  |  | 1090 | 3.7 | 24 | 50
5 | CN1C(=O)CN=C(c2ccccc2)c2cc(Cl)ccc21 [Compound No. 5, Diazepam, reference compound] |  |  |  |  | 1.19 | 6 | 9.03
